# Source: patent US8759392B2, “Amides as inhibitors of human secreted phospholipase A2” (The Regents of the University of California, priority 2008, dated 2014)
# How the values were obtained:
# human GVIA iPLA2 = target: T1, human GVIA iPLA2 (Homo sapiens, UniProt O60733); test: Mixed micelle-based assay, inhibition of GVIA iPLA2; assay type: biochemical
# T1 sequence (O60733 1-806): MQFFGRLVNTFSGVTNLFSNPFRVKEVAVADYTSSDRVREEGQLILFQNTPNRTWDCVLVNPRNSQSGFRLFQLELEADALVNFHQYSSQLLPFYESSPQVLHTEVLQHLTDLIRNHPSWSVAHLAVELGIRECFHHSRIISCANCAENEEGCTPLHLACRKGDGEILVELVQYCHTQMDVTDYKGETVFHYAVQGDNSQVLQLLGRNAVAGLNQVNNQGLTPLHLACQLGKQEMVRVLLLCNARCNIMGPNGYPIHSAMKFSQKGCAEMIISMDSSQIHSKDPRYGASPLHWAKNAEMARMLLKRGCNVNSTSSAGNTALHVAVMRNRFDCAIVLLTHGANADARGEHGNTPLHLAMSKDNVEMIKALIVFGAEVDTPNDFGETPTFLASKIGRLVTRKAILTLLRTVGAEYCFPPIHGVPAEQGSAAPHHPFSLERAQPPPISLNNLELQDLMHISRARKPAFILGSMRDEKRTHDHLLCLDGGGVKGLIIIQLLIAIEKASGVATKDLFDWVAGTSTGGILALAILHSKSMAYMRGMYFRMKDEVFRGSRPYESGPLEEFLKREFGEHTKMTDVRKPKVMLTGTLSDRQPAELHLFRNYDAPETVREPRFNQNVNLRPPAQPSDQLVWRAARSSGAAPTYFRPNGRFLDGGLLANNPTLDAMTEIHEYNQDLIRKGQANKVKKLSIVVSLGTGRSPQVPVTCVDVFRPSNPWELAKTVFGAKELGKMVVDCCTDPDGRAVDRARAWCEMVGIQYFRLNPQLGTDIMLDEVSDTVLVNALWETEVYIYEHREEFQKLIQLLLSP
# Procedure: (§1) The amides were tested for inhibition of human GIVA cPLA2, GVIA iPLA2 and GV sPLA2 using previously described mixed micelle-based assays. The resulting degrees of inhibition are presented as either percent inhibition or XI(50) values. […] The XI(50) is the mole fraction of the inhibitor in the total substrate interface required to inhibit the enzyme by 50%.
# spinal cord injury (SCI) = test: Spinal cord injury (SCI) in mice
# human GV sPLA2 = target: T2, human GV sPLA2 (Homo sapiens, UniProt P39877); test: Mixed micelle-based assay, inhibition of GV sPLA2; assay type: biochemical; conditions: for Inhibition (% at 0.091 mol fraction) sPLA2 GIIA/GV*: 0.091 mole fraction of inhibitor, average and standard error, n = 3
# T2 sequence (P39877 21-138): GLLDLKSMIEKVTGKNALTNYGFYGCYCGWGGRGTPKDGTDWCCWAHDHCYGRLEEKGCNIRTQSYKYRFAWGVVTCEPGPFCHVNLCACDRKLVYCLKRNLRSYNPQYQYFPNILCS
# Procedure: FIG. 2 illustrates inhibition curve for an amide of the present disclosure in a mixed-micelle assay with human GV sPLA2. The amides were tested for inhibition of human GIVA cPLA2, GVIA iPLA2 and GV sPLA2 using previously described mixed micelle-based assays.
# human GIVA cPLA2 = target: T3, human GIVA cPLA2 (Homo sapiens, UniProt P47712); test: Mixed micelle-based assay, inhibition of GIVA cPLA2; assay type: biochemical
# T3 sequence (P47712 1-749): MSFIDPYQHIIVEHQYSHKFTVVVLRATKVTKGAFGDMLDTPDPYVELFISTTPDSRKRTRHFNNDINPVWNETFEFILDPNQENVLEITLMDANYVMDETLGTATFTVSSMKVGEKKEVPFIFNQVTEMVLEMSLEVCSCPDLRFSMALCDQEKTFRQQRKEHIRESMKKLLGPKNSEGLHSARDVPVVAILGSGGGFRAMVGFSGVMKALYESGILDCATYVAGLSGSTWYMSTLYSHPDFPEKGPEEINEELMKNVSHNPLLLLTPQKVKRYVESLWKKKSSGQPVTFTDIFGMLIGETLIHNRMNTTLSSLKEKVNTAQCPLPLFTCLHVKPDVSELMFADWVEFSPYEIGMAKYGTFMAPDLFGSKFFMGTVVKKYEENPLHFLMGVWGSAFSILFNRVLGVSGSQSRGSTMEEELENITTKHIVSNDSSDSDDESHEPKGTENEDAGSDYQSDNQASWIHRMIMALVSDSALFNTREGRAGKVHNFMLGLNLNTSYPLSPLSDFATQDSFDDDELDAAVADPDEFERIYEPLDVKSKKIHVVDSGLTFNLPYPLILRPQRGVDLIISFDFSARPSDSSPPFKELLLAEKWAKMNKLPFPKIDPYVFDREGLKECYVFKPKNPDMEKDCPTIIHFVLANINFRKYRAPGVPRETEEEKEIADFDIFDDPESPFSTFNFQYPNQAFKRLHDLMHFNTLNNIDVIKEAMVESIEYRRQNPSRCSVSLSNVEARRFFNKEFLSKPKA
# Procedure: as §1
# secreted PLA2 = conditions: known inhibitors of FIG. 1; cited from earlier work
# [1] = 0.091 mole fraction of inhibitor, average and standard error, n = 3
Compound,Activity on GVIA iPLA2 (in words) (human GVIA iPLA2),"Myelin sparing (luxol fast blue) (spinal cord injury (SCI); 28 days after SCI, […])","Locomotor function, 9-point Basso Mouse Scale (BMS) score (spinal cord injury (SCI); administration started 1 hour after SCI, vs vehicle treated mice, significant from day 5 dpi through the follow up)",Activity on GV sPLA2 (in words) (human GV sPLA2),Inhibition (% at 0.091 mol fraction) sPLA2 GIIA/GV* (human GV sPLA2),"XI(50) GV sPLA2 (human GV sPLA2; mole fraction of inhibitor in total substrate interface for 50% inhibition, non-linear regression (hyperbolic))",Activity on GIVA cPLA2 (in words) (human GIVA cPLA2),Inhibition (% at 0.091 mol fraction) iPLA2 GVIA (human GVIA iPLA2; [1]),XI(50) iPLA2 GVIA (human GVIA iPLA2; mole fraction of inhibitor in total substrate interface required to inhibit the enzyme by 50%),Inhibition (% at 0.091 mol fraction) cPLA2 GIVA (human GIVA cPLA2; [1]),Inhibition of secreted PLA2 (in words) (secreted PLA2)
"CCCC[C@H](CCC(=O)O)NC(=O)CCCCCCc1ccccc1 [Compound 9, (R)-4-(7-phenylheptanamido)octanoic acid]",not affecting at all,significant myelin sparing,improved locomotor function,potent and selective GV sPLA2 inhibitor,> 95%,0.003±0.0004 mole fraction,not affecting at all,–,–,–,–
"O=C(CCCCc1ccccc1)C(F)(F)C(F)(F)F [FKGK11, reference compound]",–,–,–,–,28 ± 1%,–,–,> 95%,0.0096 ± 0.0008 mole fraction,N.D. (N.D. signifies compounds with less than 25% inhibition (or no detectable inhibition)),–
CCC[C@H](CCC(=O)O)NC(=O)CCCCCCc1ccccc1 [Compound 2],–,–,–,–,–,–,–,–,–,–,potent inhibitor
